According to ChEMBL document CHEMBL4368926, “Arylpyridines, arylpyrimidines and related compounds as potential modulator agents of the VEGF, hTERT and c-Myc oncogenes” (Bioorg Med Chem, 2019):

What was measured:
HT-29 [1] = test: Down-regulation of VEGFRA mRNA expression in human HT-29 cells assessed as VEGFRA mRNA level at 80 uM after 48 hrs by RT-qPCR analysis (reference value: 100%); type: functional
HT-29 [2] = test: Cytotoxicity against human HT-29 cells assessed as decrease in cell viability after 2 days by MTT assay; type: functional, cell-based; conditions: HT-29, 48 h
HT-29 [3] = test: Down-regulation of c-Myc protein expression in human HT-29 cells assessed as c-Myc protein level at 80 uM after 48 hrs by ELISA (reference value: 100%); type: functional
[4] = Selectivity index, ratio of IC50 for HEK293 cells to IC50 for human HT-29 cells; type: toxicity; conditions: HEK293 cells versus HT-29 cells, read-out: Ratio IC50
HT-29 [5] = test: Down-regulation of c-Myc mRNA expression in human HT-29 cells assessed as c-Myc mRNA level at 80 uM after 48 hrs by RT-qPCR analysis (reference value: 100%); type: functional
HEK293 = test: Cytotoxicity against HEK293 cells assessed as decrease in cell viability after 2 days by MTT assay; type: ADME, cell-based; conditions: Homo sapiens, HEK293, 48 h
[6] = Selectivity index, ratio of IC50 for HEK293 cells to IC50 for human MCF7 cells; conditions: HEK293 cells versus MCF7 cells
HT-29 [7] = test: Down-regulation of VEGFA protein expression in human HT-29 cells assessed as VEGFA protein level at 80 uM after 48 hrs by ELISA (reference value: 100%); type: functional
MCF7 = test: Cytotoxicity against human MCF7 cells assessed as decrease in cell viability after 2 days by MTT assay; type: functional, cell-based; conditions: MCF7, 48 h
HT-29 [8] = test: Down-regulation of hTERT mRNA expression in human HT-29 cells assessed as hTERT mRNA level at 80 uM after 48 hrs by RT-qPCR analysis (reference value: 100%); type: functional
HT-29 [9] = test: Down-regulation of c-Myc protein expression in human HT-29 cells assessed as c-Myc protein level at 40 uM after 48 hrs by ELISA (reference value: 100%); type: functional
HT-29 [10] = test: Down-regulation of VEGFA protein expression in human HT-29 cells assessed as VEGFA protein level at 40 uM after 48 hrs by ELISA (reference value: 100%); type: functional
HT-29 [11] = test: Down-regulation of c-Myc mRNA expression in human HT-29 cells assessed as c-Myc mRNA level at 40 uM after 48 hrs by RT-qPCR analysis (reference value: 100%); type: functional
HT-29 [12] = test: Down-regulation of hTERT mRNA expression in human HT-29 cells assessed as hTERT mRNA level at 40 uM after 48 hrs by RT-qPCR analysis (reference value: 100%); type: functional
HT-29 [13] = test: Down-regulation of VEGFRA mRNA expression in human HT-29 cells assessed as VEGFRA mRNA level at 20 uM after 48 hrs by RT-qPCR analysis (reference value: 100%); type: functional
HT-29 [14] = test: Down-regulation of VEGFA protein expression in human HT-29 cells assessed as VEGFA protein level at 100 uM after 48 hrs by ELISA (reference value: 100%); type: functional
HT-29 [15] = test: Down-regulation of c-Myc mRNA expression in human HT-29 cells assessed as c-Myc mRNA level at 100 uM after 48 hrs by RT-qPCR analysis (reference value: 100%); type: functional
HT-29 [16] = test: Down-regulation of hTERT mRNA expression in human HT-29 cells assessed as hTERT mRNA level at 100 uM after 48 hrs by RT-qPCR analysis (reference value: 100%); type: functional
HT-29 [17] = test: Down-regulation of c-Myc protein expression in human HT-29 cells assessed as c-Myc protein level at 100 uM after 48 hrs by ELISA (reference value: 100%); type: functional
HT-29 [18] = test: Down-regulation of VEGFRA mRNA expression in human HT-29 cells assessed as VEGFRA mRNA level at 100 uM after 48 hrs by RT-qPCR analysis (reference value: 100%); type: functional
HT-29 [19] = test: Down-regulation of VEGFRA mRNA expression in human HT-29 cells assessed as VEGFRA mRNA level at 40 uM after 48 hrs by RT-qPCR analysis (reference value: 100%); type: functional
HT-29 [20] = test: Down-regulation of VEGFRA mRNA expression in human HT-29 cells assessed as VEGFRA mRNA level at 145 uM after 48 hrs by RT-qPCR analysis (reference value: 100%); type: functional
HT-29 [21] = test: Down-regulation of hTERT mRNA expression in human HT-29 cells assessed as hTERT mRNA level at 145 uM after 48 hrs by RT-qPCR analysis (reference value: 100%); type: functional
HT-29 [22] = test: Down-regulation of VEGFA protein expression in human HT-29 cells assessed as VEGFA protein level at 145 uM after 48 hrs by ELISA (reference value: 100%); type: functional
HT-29 [23] = test: Down-regulation of c-Myc mRNA expression in human HT-29 cells assessed as c-Myc mRNA level at 145 uM after 48 hrs by RT-qPCR analysis (reference value: 100%); type: functional
HT-29 [24] = test: Down-regulation of c-Myc protein expression in human HT-29 cells assessed as c-Myc protein level at 145 uM after 48 hrs by ELISA (reference value: 100%); type: functional
HT-29 [25] = test: Down-regulation of c-Myc mRNA expression in human HT-29 cells assessed as c-Myc mRNA level at 160 uM after 48 hrs by RT-qPCR analysis (reference value: 100%); type: functional
HT-29 [26] = test: Down-regulation of VEGFA protein expression in human HT-29 cells assessed as VEGFA protein level at 160 uM after 48 hrs by ELISA (reference value: 100%); type: functional
HT-29 [27] = test: Down-regulation of c-Myc protein expression in human HT-29 cells assessed as c-Myc protein level at 160 uM after 48 hrs by ELISA (reference value: 100%); type: functional
HT-29 [28] = test: Down-regulation of VEGFRA mRNA expression in human HT-29 cells assessed as VEGFRA mRNA level at 160 uM after 48 hrs by RT-qPCR analysis (reference value: 100%); type: functional
HT-29 [29] = test: Down-regulation of hTERT mRNA expression in human HT-29 cells assessed as hTERT mRNA level at 160 uM after 48 hrs by RT-qPCR analysis (reference value: 100%); type: functional
HT-29 [30] = test: Down-regulation of hTERT mRNA expression in human HT-29 cells assessed as hTERT mRNA level at 240 uM after 48 hrs by RT-qPCR analysis (reference value: 100%); type: functional
HT-29 [31] = test: Down-regulation of VEGFRA mRNA expression in human HT-29 cells assessed as VEGFRA mRNA level at 240 uM after 48 hrs by RT-qPCR analysis (reference value: 100%); type: functional
HT-29 [32] = test: Down-regulation of c-Myc mRNA expression in human HT-29 cells assessed as c-Myc mRNA level at 240 uM after 48 hrs by RT-qPCR analysis (reference value: 100%); type: functional
HT-29 [33] = test: Down-regulation of c-Myc protein expression in human HT-29 cells assessed as c-Myc protein level at 240 uM after 48 hrs by ELISA (reference value: 100%); type: functional
HT-29 [34] = test: Down-regulation of VEGFA protein expression in human HT-29 cells assessed as VEGFA protein level at 240 uM after 48 hrs by ELISA (reference value: 100%); type: functional
HT-29 [35] = test: Down-regulation of c-Myc protein expression in human HT-29 cells assessed as c-Myc protein level at 20 uM after 48 hrs by ELISA (reference value: 100%); type: functional
HT-29 [36] = test: Down-regulation of c-Myc mRNA expression in human HT-29 cells assessed as c-Myc mRNA level at 20 uM after 48 hrs by RT-qPCR analysis (reference value: 100%); type: functional
HT-29 [37] = test: Down-regulation of hTERT mRNA expression in human HT-29 cells assessed as hTERT mRNA level at 20 uM after 48 hrs by RT-qPCR analysis (reference value: 100%); type: functional
HT-29 [38] = test: Down-regulation of VEGFA protein expression in human HT-29 cells assessed as VEGFA protein level at 20 uM after 48 hrs by ELISA (reference value: 100%); type: functional

Row | Compound | IC50 (HT-29 [2]) [µM] | selectivity ratio [4] | IC50 (HEK293) [µM] | selectivity ratio [6] | IC50 (MCF7) [µM] | also measured
1 | c1ccc(N2CCCCC2)cc1 | 120 | 5 | > 400 | 4 | 157 | Activity (HT-29 [1]): 89%; Activity (HT-29 [3]): 95%; Activity (HT-29 [5]): 52%; Activity (HT-29 [7]): 75%; Activity (HT-29 [8]): 41%
2 | COc1ccc(-c2cncnc2)c(OC)c1 | > 400 | – | > 400 | – | > 400 | –
3 | COc1ccc(-c2ccccn2)cc1OC | 56 | 3 | 170 | < 1 | 210 | Activity (HT-29 [9]): 100%; Activity (HT-29 [10]): 48%; Activity (HT-29 [11]): 38%; Activity (HT-29 [12]): 20%; Activity (HT-29 [13]): 8%
4 | COc1ccc(-c2cccnc2)cc1OC | > 400 | – | > 400 | > 2 | 223 | –
5 | COc1cccc(N2CCCC2)c1 | 310 | 3 | 210 | 3 | 51 | –
6 | Oc1ccccc1-c1ccccn1 | 197 | 2 | 390 | 57 | 7 | Activity (HT-29 [14]): 65%; Activity (HT-29 [15]): 17%; Activity (HT-29 [16]): 36%; Activity (HT-29 [17]): 62%; Activity (HT-29 [18]): 31%
7 | COc1ccc(-c2cccnc2)c(OC)c1 | 59 | 2 | 100 | < 1 | 210 | Activity (HT-29 [19]): 32%; Activity (HT-29 [9]): 56%; Activity (HT-29 [10]): 52%; Activity (HT-29 [11]): 39%; Activity (HT-29 [12]): 28%
8 | Oc1ccccc1-c1cccnc1 | 115 | 2 | 294 | 7 | 41 | Activity (HT-29 [20]): 18%; Activity (HT-29 [21]): 44%; Activity (HT-29 [22]): 96%; Activity (HT-29 [23]): 39%; Activity (HT-29 [24]): 100%
9 | Oc1ccccc1-c1cncnc1 | 380 | < 1 | 90 | 2 | 61 | –
10 | COc1ccc(N2CCCC2)cc1 | 210 | 3 | 350 | 5 | > 400 | Activity (HT-29 [14]): 79%; Activity (HT-29 [15]): 79%; Activity (HT-29 [16]): 35%; Activity (HT-29 [17]): 100%; Activity (HT-29 [18]): 55%
11 | c1ccc(N2CCCC2)cc1 | > 400 | – | > 400 | – | > 400 | –
12 | c1ccc(N2CCOCC2)cc1 | 240 | 3 | > 400 | 5 | 120 | Activity (HT-29 [25]): 67%; Activity (HT-29 [26]): 79%; Activity (HT-29 [27]): 95%; Activity (HT-29 [28]): 79%; Activity (HT-29 [29]): 57%
13 | c1ccc(-c2cccnc2)cc1 | > 400 | < 1 | 321 | < 1 | > 400 | Activity (HT-29 [30]): 56%; Activity (HT-29 [31]): 34%; Activity (HT-29 [32]): 35%; Activity (HT-29 [33]): 60%; Activity (HT-29 [34]): 42%
14 | Oc1ccccc1-c1ncccn1 | > 400 | – | > 400 | 14 | 41 | –
15 | C=CCc1ccc(O)c(-c2ccc(O)c(CC=C)c2)c1 [HONOKIOL] | 25 | 2 | 40 | 2 | 35 | Activity (HT-29 [35]): 53%; Activity (HT-29 [36]): 45%; Activity (HT-29 [37]): 45%; Activity (HT-29 [38]): 55%; Activity (HT-29 [13]): 36%
16 | COc1ccc(-c2ncccn2)cc1OC | > 400 | – | > 400 | > 9 | 48 | –
17 | COc1cccc(N2CCOCC2)c1 | 160 | 3 | > 400 | 5 | 100 | Activity (HT-29 [25]): 62%; Activity (HT-29 [26]): 50%; Activity (HT-29 [27]): 100%; Activity (HT-29 [28]): 54%; Activity (HT-29 [29]): 72%
18 | COc1ccc(-c2ccccn2)c(OC)c1 | > 400 | < 1 | 234 | < 1 | > 400 | –
19 | COc1ccc(N2CCCCC2)cc1 | 120 | – | 100 | 2 | 71 | –
20 | COc1ccc(N2CCOCC2)cc1 | 180 | 3 | > 400 | 7 | 73 | Activity (HT-29 [25]): 96%; Activity (HT-29 [26]): 64%; Activity (HT-29 [27]): 100%; Activity (HT-29 [28]): 66%; Activity (HT-29 [29]): 63%
21 | COc1ccc(-c2cncnc2)cc1OC | > 400 | – | > 400 | 2 | 200 | –
22 | c1ccc(-c2cncnc2)cc1 | > 400 | – | > 400 | > 50 | 7 | –
23 | COc1ccc(-c2ncccn2)c(OC)c1 | 30 | < 1 | 20 | < 1 | 130 | Activity (HT-29 [35]): 63%; Activity (HT-29 [36]): 18%; Activity (HT-29 [37]): 85%; Activity (HT-29 [38]): 48%; Activity (HT-29 [13]): 33%
